Test system: Lactobacillus gasseri - clinical strain
Assay: Determination of the MIC value of totarol, broth dilution in 96-well plates with OD and quantitative culture
Format: cell-based
Details: for OD, average of 3 measurements / OD: 620 nm
Protocol: Test of antibacterial activity of totarol using DMI (dimethylisosorbide) as a solvent.
A suspension of 0.5 McF in physiological saline (suspension density 10^8 cfu/ml) was prepared from a 24-hour culture of a standard strain. 1 ml of the suspension was collected to 9 ml of a TSB broth ([…]). Suspensions with a dilution of 10^−6 were prepared in the described way. A suspension with a cell density of 10^5 cfu/ml was selected for further investigations. For each strain, 2 96-well plates were prepared: the first one was intended for the OD measurement, the second one—for quantitative culture on solid media. • A/ to wells B1-D1, B2-D2 and B-D 4-11, 100 µl of the broth were added; • B/ to wells B3-D3, 200 µl of the broth were added; • C/ to wells B1-D1, 1 µl of stock I was added; • D/ to wells B2-D2, 1 µl of stock II was added; • E/ to wells B3-D3, 2 µl of stock III were added. Using a multichannel pipette, 100 µl of the sample were collected from each of the B3-D3 wells and placed in wells B4-D4 (mixing by sucking the content in and letting it out for 5 times). The pipette tips were replaced and 100 µl of the content were collected from of the B4-D4 wells, and placed in wells B5-D5, mixing as previously. These operations were repeated through the wells B11-D11. The content in the B11-D11 wells was mixed, and 100 µl of the fluid were collected and discarded. This way, a series of dilutions of totarol samples in DMI in the range of 0.32% to 0.0004% was obtained. Then, 100 µl of a corresponding bacterial culture were added to the wells B, C, D 1-11. In consequence, a change in the final concentration range occurred, to 0.16%-0.0002%. Control Preparation: • Negative control: 100 µl of the broth+1 pl DMI were added to the Al well. • Positive control (I): 100 µl of the broth with the bacterial culture were added to the wells E1-G1. • Diluent positive control (II): 100 µl of the broth with the bacterial culture+1 pl DMI were added to the wells E2-G2. The OD value in the individual wells was read at the wavelength of 620 nm (read time 0). From the second 96-well plate, a culture was inoculated by a quantitative method from every dilution onto a well with a proper solid medium, and incubated for 24 h at 37° C. under aerobic or anaerobic conditions, depending on the strain. The plates were incubated under aerobic conditions or in an atmosphere of an elevated CO2 concentration (for the strains requiring it) in an incubator at 37° C. The OD was read after 8 h, 16 h, and 24 h, respectively. Before every OD measurement, the contents of the wells were mixed delicately. In parallel to the OD readout, cultures we inoculated from the second 96-well plate, from every dilution, into plates with a proper solid medium, and incubated for 24 h at 37° C., under aerobic or anaerobic conditions. For the analysis of the experimental results, an average value of the OD measurement obtained from three repetitions in the individual times (0, 8, 16, and 24 h) for the individual microbes (Gardnerella vaginalis, Streptococcus agalactiae, Enterococcus faecalis, Lactobacillus gasseri/plantarum) was taken. Additionally, the number of bacteria grown on solid media was taken into account. The results of the tests confirm the specific, concentration-dependent selectiveness, and the high antibacterial effectiveness of totarol against the pathogenic microorganisms: Gardnerella vaginalis, Streptococcus agalactiae, Enterococcus faecalis at low MIC values safe for bacteria of the Lactobacillus genus.

## CC(C)c1c(O)ccc2c1CC[C@H]1C(C)(C)CCC[C@]21C [Totarol, totarol]
L. gasseri
  MIC value: 0.04%
Totarol 0.0002%, 0 h
  Inoculation cfu/ml: 3.1 × 10^5 cfu/ml
  OD, average of 3 measurements: 0.299
Totarol 0.0002%, 8 h
  Inoculation cfu/ml: 2.1 × 10^5 cfu/ml
  OD, average of 3 measurements: 0.302
Totarol 0.0002%, 16 h
  Inoculation cfu/ml: 5.9 × 10^6 cfu/ml
  OD, average of 3 measurements: 0.897
Totarol 0.0002%, 24 h
  Inoculation cfu/ml: 2.9 × 10^7 cfu/ml
  OD: 1.492
Totarol 0.0004%, 0 h
  Inoculation cfu/ml: 5.1 × 10^5 cfu/ml
  OD, average of 3 measurements: 0.296
Totarol 0.0004%, 8 h
  Inoculation cfu/ml: 2.1 × 10^5 cfu/ml
  OD, average of 3 measurements: 0.306
Totarol 0.0004%, 16 h
  Inoculation cfu/ml: 3.9 × 10^6 cfu/ml
  OD, average of 3 measurements: 0.915
Totarol 0.0004%, 24 h
  Inoculation cfu/ml: 3.2 × 10^7 cfu/ml
  OD: 1.484
Totarol 0.0007%, 0 h
  Inoculation cfu/ml: 1.7 × 10^5 cfu/ml
  OD, average of 3 measurements: 0.289
Totarol 0.0007%, 8 h
  Inoculation cfu/ml: 1.9 × 10^5 cfu/ml
  OD, average of 3 measurements: 0.299
Totarol 0.0007%, 16 h
  Inoculation cfu/ml: 3.6 × 10^6 cfu/ml
  OD, average of 3 measurements: 0.879
Totarol 0.0007%, 24 h
  Inoculation cfu/ml: 3 × 10^7 cfu/ml
  OD: 1.458
Totarol 0.0013%, 0 h
  Inoculation cfu/ml: 3.8 × 10^5 cfu/ml
  OD, average of 3 measurements: 0.298
Totarol 0.0013%, 8 h
  Inoculation cfu/ml: 1.8 × 10^5 cfu/ml
  OD, average of 3 measurements: 0.301
Totarol 0.0013%, 16 h
  Inoculation cfu/ml: 4.1 × 10^6 cfu/ml
  OD, average of 3 measurements: 0.879
Totarol 0.0013%, 24 h
  Inoculation cfu/ml: 2.1 × 10^7 cfu/ml
  OD: 1.457
Totarol 0.0025%, 0 h
  Inoculation cfu/ml: 4.5 × 10^5 cfu/ml
  OD, average of 3 measurements: 0.285
Totarol 0.0025%, 8 h
  Inoculation cfu/ml: 1.5 × 10^5 cfu/ml
  OD, average of 3 measurements: 0.302
Totarol 0.0025%, 16 h
  Inoculation cfu/ml: 2.3 × 10^6 cfu/ml
  OD, average of 3 measurements: 0.880
Totarol 0.0025%, 24 h
  Inoculation cfu/ml: 2.3 × 10^7 cfu/ml
  OD: 1.459
Totarol 0.005%, 0 h
  Inoculation cfu/ml: 1.2 × 10^5 cfu/ml
  OD, average of 3 measurements: 0.292
Totarol 0.005%, 8 h
  Inoculation cfu/ml: 2 × 10^5 cfu/ml
  OD, average of 3 measurements: 0.300
Totarol 0.005%, 16 h
  Inoculation cfu/ml: 9.1 × 10^6 cfu/ml
  OD, average of 3 measurements: 0.843
Totarol 0.005%, 24 h
  Inoculation cfu/ml: 2.1 × 10^7 cfu/ml
  OD: 1.387
Totarol 0.01%, 0 h
  Inoculation cfu/ml: 3.9 × 10^5 cfu/ml
  OD, average of 3 measurements: 0.301
Totarol 0.01%, 8 h
  Inoculation cfu/ml: 7 × 10^4 cfu/ml
  OD, average of 3 measurements: 0.297
Totarol 0.01%, 16 h
  Inoculation cfu/ml: 5.3 × 10^6 cfu/ml
  OD, average of 3 measurements: 0.799
Totarol 0.01%, 24 h
  Inoculation cfu/ml: 1.3 × 10^7 cfu/ml
  OD: 1.301
Totarol 0.02%, 0 h
  Inoculation cfu/ml: 1.4 × 10^5 cfu/ml
  OD, average of 3 measurements: 0.305
Totarol 0.02%, 8 h
  Inoculation cfu/ml: 1.4 × 10^5 cfu/ml
  OD, average of 3 measurements: 0.299
Totarol 0.02%, 16 h
  Inoculation cfu/ml: 2.1 × 10^5 cfu/ml
  OD, average of 3 measurements: 0.753
Totarol 0.02%, 24 h
  Inoculation cfu/ml: 1 × 10^5 cfu/ml
  OD: 1.208
Totarol 0.04%, 0 h
  Inoculation cfu/ml: 4.6 × 10^5 cfu/ml
  OD, average of 3 measurements: 0.352
Totarol 0.04%, 8 h
  Inoculation cfu/ml: 6 × 10^4 cfu/ml
  OD, average of 3 measurements: 0.335
Totarol 0.04%, 16 h
  Inoculation cfu/ml: 4.5 × 10^3 cfu/ml
  OD, average of 3 measurements: 0.342
Totarol 0.04%, 24 h
  Inoculation cfu/ml: 5 × 10^3 cfu/ml
  OD: 0.349
Totarol 0.08%, 0 h
  Inoculation cfu/ml: 2.9 × 10^5 cfu/ml
  OD, average of 3 measurements: 0.526
Totarol 0.08%, 8 h
  Inoculation cfu/ml: 1 × 10^4 cfu/ml
  OD, average of 3 measurements: 0.409
Totarol 0.08%, 16 h
  Inoculation cfu/ml: 1.9 × 10^2 cfu/ml
  OD, average of 3 measurements: 0.463
Totarol 0.08%, 24 h
  Inoculation cfu/ml: 1.2 × 10^2 cfu/ml
  OD: 0.472
Totarol 0.16%, 0 h
  Inoculation cfu/ml: 6.5 × 10^5 cfu/ml
  OD, average of 3 measurements: 0.427
Totarol 0.16%, 8 h
  Inoculation cfu/ml: 2.5 × 10^4 cfu/ml
  OD, average of 3 measurements: 0.411
Totarol 0.16%, 16 h
  Inoculation cfu/ml: 3.1 × 10^1 cfu/ml
  OD, average of 3 measurements: 0.409
Totarol 0.16%, 24 h
  Inoculation cfu/ml: 1 × 10^1 cfu/ml
  OD: 0.406

— patent publication US11534412B2, “Application of totarol and pharmaceutical composition containing totarol” (Emergopharm SP. Z O.O. SP.K., priority 2017, dated 2022)
